Among the data in patent US9856224B2, “Stable sodium channel blockers” (PARION SCIENCES, INC., priority 2014, dated 2018) are IC50 values, retold here.

Usually IC50 stands for the midpoint of a concentration-inhibition curve. A higher IC50 goes with lower potency.

For this assay, the target named is T1, airway epithelial sodium currents (epithelial sodium channel, ENaC) (Canis lupus familiaris, UniProt A0A8I3MKE6+A0A8I3Q679+Q95165).
T1 construct: endogenous in cells; host or cells: primary canine airway epithelial cells cultured at air-liquid interface, mounted in Ussing chambers
T1 sequence (A0A8I3Q679 1-649): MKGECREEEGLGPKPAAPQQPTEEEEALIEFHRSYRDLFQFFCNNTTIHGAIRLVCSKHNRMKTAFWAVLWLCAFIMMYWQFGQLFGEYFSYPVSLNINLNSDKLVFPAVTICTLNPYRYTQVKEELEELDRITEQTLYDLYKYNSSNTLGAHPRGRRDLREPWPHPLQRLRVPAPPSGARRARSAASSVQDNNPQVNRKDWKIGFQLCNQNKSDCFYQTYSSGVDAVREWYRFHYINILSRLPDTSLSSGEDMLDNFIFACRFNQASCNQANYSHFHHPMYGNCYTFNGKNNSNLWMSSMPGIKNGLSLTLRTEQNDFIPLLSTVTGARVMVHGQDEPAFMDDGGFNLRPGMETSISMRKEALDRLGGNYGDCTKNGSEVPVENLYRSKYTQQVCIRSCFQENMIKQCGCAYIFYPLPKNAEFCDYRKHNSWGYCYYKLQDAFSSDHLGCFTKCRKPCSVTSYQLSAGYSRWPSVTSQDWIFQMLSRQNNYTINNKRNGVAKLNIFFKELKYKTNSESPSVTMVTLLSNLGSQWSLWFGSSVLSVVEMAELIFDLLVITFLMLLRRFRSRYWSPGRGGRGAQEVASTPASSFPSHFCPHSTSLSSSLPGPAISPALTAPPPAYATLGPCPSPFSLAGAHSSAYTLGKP
T1 sequence (Q95165 1-641): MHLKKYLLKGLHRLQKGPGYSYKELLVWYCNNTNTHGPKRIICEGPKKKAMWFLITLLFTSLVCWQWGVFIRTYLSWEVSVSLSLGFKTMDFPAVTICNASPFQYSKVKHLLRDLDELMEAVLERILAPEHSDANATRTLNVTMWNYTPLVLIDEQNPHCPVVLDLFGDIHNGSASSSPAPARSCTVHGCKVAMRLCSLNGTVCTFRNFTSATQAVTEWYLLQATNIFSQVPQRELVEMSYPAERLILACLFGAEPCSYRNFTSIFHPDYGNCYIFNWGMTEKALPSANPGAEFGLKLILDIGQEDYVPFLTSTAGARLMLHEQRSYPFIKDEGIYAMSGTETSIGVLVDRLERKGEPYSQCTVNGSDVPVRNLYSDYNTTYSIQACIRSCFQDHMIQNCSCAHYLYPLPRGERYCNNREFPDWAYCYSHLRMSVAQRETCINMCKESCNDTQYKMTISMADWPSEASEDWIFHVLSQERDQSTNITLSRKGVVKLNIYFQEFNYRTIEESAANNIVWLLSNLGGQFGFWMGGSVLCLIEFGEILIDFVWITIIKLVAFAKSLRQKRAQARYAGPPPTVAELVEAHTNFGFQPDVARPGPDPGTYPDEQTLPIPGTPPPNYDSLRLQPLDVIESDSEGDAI
T1 sequence (A0A8I3MKE6 1-646): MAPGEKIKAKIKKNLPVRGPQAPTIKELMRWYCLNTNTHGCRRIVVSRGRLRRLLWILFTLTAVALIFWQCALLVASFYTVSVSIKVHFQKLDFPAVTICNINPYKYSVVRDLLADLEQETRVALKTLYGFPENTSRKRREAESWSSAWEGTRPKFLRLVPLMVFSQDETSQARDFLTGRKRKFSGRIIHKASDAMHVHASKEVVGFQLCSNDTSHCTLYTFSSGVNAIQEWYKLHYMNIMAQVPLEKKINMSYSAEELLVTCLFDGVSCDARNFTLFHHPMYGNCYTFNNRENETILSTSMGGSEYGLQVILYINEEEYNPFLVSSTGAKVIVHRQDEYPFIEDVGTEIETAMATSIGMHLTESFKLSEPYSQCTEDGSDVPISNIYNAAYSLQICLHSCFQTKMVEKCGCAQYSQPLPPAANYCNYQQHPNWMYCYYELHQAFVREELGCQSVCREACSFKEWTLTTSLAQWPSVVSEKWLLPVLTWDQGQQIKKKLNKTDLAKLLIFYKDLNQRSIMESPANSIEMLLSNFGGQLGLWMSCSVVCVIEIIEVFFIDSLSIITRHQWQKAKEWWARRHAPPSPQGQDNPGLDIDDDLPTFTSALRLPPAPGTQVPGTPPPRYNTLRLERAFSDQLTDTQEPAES
Nature of the assay: In vitro measure of sodium channel blocking activity (short circuit current, Ussing chambers). The format is cell-based. The following applies: freshly excised cells from canine airways; lumenal drug addition; short circuit current (ISC). As for the experimental part:
One assay used to assess mechanism of action and/or potency of the compounds of the present invention involves the determination of lumenal drug inhibition of airway epithelial sodium currents measured under short circuit current (ISC) using airway epithelial monolayers mounted in Ussing chambers. Cells obtained from freshly excised human, dog, sheep or rodent airways are seeded onto porous 0.4 micron Snapwell™ Inserts (CoStar), cultured at air-liquid interface (ALI) conditions in hormonally defined media, and assayed for sodium transport activity (ISC) while bathed in Krebs Bicarbonate Ringer (KBR) in Using chambers. All test drug additions are to the lumenal bath with half-log dose addition protocols (from 1×10^−11 M to 3×10^−5 M), and the cumulative change in ISC (inhibition) recorded. […] After the maximal concentration (5×10^−5 M) is administered, the lumenal bath is exchanged three times with fresh drug-free KBR solution, and the resultant ISC measured after each wash for approximately 5 minutes in duration. […] All data from the voltage clamps are collected via a computer interface and analyzed off-line. Dose-effect relationships for all compounds are considered and analyzed by the Prism 3.0 program. IC50 values, maximal effective concentrations, and reversibility are calculated and compared to amiloride and benzamil as positive controls. […]

As to `N=C(N)NCCCC[C@H](NC[C@H](O)[C@@H](O)[C@H](O)[C@H](O)CO)C(=O)NCCOc1ccc(CCCCNC(=N)NC(=O)c2nc(Cl)c(N)nc2N)cc1` [Compound I, 3,5-diamino-6-chloro-N—(N-(4-(4-(2-((S)-6-guanidino-2-((2S,3R,4R,5R)-2,3,4,5,6-pentahydroxyhexylamino)hexanamido)ethoxy)phenyl)butyl)carbamimidoyl)pyrazine-2-carboxamide], it took 13.2 nM to reach half-maximal inhibition (IC50).
